From PubChem BioAssay AID2060499 (Molecular Pharmacology Branch, DTP, NCI, 2025)

Test system: 777334-354-R2-J4-PDC tumor spheroids with HUVEC/MSC, viability
Assay: Anticancer human tumor 777334-354-R2-J4-PDC patient-derived pancreatic adenocarcinoma cell line growth inhibition [GQUAD]
Details: for IC50: curve of first compound; for viability, T/C: stronger effect = lower value
Excerpt: DNA G-quadruplex Stabilizer Agents in Combinations in Complex Spheroids
A high-throughput screen of multi-cell type tumor spheroids was designed to identify active combinations of DNA G-quadruplex stabilizer agents and targeted small molecules. Complex spheroids include a stromal component modeled by human endothelial cells (HUVEC) and fibroblasts modeled by human mesenchymal stem cells (MSCs). The concentration ranges selected for each drug and investigational agent were based upon clinically achievable concentrations if the clinical Cmax of the agent was known.
Compounds. The drugs and investigational agents: pidnarulex (CX-5461; NSC782164), APTO-253 (NSC789042), BRACO-19 (NSC847499), peposertib (NSC802822), ceralasertib (NSC780249), elimusertib (NSC800525), camonsertib (NSC841442), AZD-1390 (NSC803789), olaparib (NSC753686), talazoparib (NSC767125), ART-558 (NSC835418), sotorasib (NSC818433), MRTX-1133 (NSC836407), SN-38 (NSC673596), topotecan (NSC609699), etoposide (NSC141540), doxorubicin (NSC123127), gemcitabine (NSC613327), 5-fluorouracil (NSC19893), paclitaxel (NSC125973), vemurafenib (NSC761431), panobinostat (NSC761190), R-306465 (JNJ-16241199; NSC773264), adavosertib (NSC754352), TP-3654 (NSC805149), carboplatin (NSC241240), KSQ-4279 (NSC840948), and staurosporine (NSC755774) were obtained from the National Cancer Institute (NCI) Developmental Therapeutics Program Chemical Repository (34). The FDA-approved anticancer drug set is available from the NCI Developmental Therapeutics Program. […] The stock solutions were prepared in dimethyl sulfoxide (DMSO, Sigma-Aldrich, St. Louis, MO, cat. D2650) at 800-fold the tested concentration and stored at -70 degrees C prior to their use. All drugs and investigational agents were tested over a range starting from a high concentration at or near the clinical Cmax and decreasing in half-log increments. If the clinical Cmax for an agent had not been determined, the highest concentration tested was 10 microM.
2.3 Cell Culture. All cells were maintained in an incubator at 37 degrees C and 5% CO2 with 95% humidity. The PDC lines were cultured according to standard operating procedures established by the NCI PDMR. All PDCs were thawed and cultured in Matrigel-coated flasks prepared with a working solution of 1X Ham's F-12 nutrient mix, without supplementation (Invitrogen, cat. 11765054), 100 U/mL penicillin-streptomycin (Invitrogen, cat. 15140122), and 2.5% Matrigel (Corning Inc., cat. 354248) for the first three passages. The 857933-349-R-J2-PDC line was cultured in 6C/Colon 1B media, which includes advanced DMEM/F-12 (Thermo Fisher Scientific, cat. 12634028), 10 mM HEPES (Thermo Fisher Scientific, cat. 15630080), 1X GlutaMAX supplement (Thermo Fisher Scientific, cat. 35050061), 0.1 mg/mL primocin (InvivoGen, cat. ant-pm-2), 10% defined fetal bovine serum, heat inactivated (HyClone Laboratories Inc., cat. SH30070.03HI), 50% L-WRN conditioned media (ATCC, cat. CRL-3276), 1.25 mM N-Acetyl-L-cysteine (Sigma-Aldrich, cat. A9165), 10 mM nicotinamide (Sigma-Aldrich, cat. N0636), 1X B-27 supplement (Thermo Fisher Scientific, cat. 17504044), 1X N-2 supplement (Thermo Fisher Scientific, cat. 17502048), 10 microM Y-27632 dihydrochloride (Tocris Bioscience, cat. 1254), and 50 ng/mL human EGF recombinant protein (Thermo Fisher Scientific, cat. PHG0311). The 485176-168-R4-J1-PDC line was cultured in Panc media, which includes all 6C/Colon 1B media components plus 100 ng/mL human FGF-10 (Thermo Fisher Scientific, cat. 100-26), 500 nM SB-431542 (Selleckchem, cat. S1067), and gastrin (Tocris, cat. 3006).
[…]

[1] = second compound 0.0316 µM, first compound 0.0316 µM
[2] = second compound 0.0316 µM, first compound 0.1 µM
[3] = second compound 0.0316 µM, first compound 0.316 µM
[4] = second compound 0.0316 µM, first compound 1 µM
[5] = second compound 0.0316 µM, first compound 3.16 µM
[6] = second compound 0.0316 µM, first compound 10 µM
[7] = second compound 0.1 µM, first compound 0.0316 µM
[8] = second compound 0.1 µM, first compound 0.1 µM
[9] = second compound 0.1 µM, first compound 0.316 µM
[10] = second compound 0.1 µM, first compound 1 µM
[11] = second compound 0.1 µM, first compound 3.16 µM
[12] = second compound 0.1 µM, first compound 10 µM
[13] = second compound 0.316 µM, first compound 0.0316 µM
[14] = second compound 0.316 µM, first compound 0.1 µM
[15] = second compound 0.316 µM, first compound 0.316 µM
[16] = second compound 0.316 µM, first compound 1 µM
[17] = second compound 0.316 µM, first compound 3.16 µM
[18] = second compound 0.316 µM, first compound 10 µM
[19] = second compound 1 µM, first compound 0.0316 µM
[20] = second compound 1 µM, first compound 0.1 µM
[21] = second compound 1 µM, first compound 0.316 µM
[22] = second compound 1 µM, first compound 1 µM
[23] = second compound 1 µM, first compound 3.16 µM
[24] = second compound 1 µM, first compound 10 µM
[25] = second compound 3.16 µM, first compound 0.0316 µM
[26] = second compound 3.16 µM, first compound 0.1 µM
[27] = second compound 3.16 µM, first compound 0.316 µM
[28] = second compound 3.16 µM, first compound 1 µM
[29] = second compound 3.16 µM, first compound 3.16 µM
[30] = second compound 3.16 µM, first compound 10 µM
[31] = second compound 10 µM, first compound 0.0316 µM
[32] = second compound 10 µM, first compound 0.1 µM
[33] = second compound 10 µM, first compound 0.316 µM
[34] = second compound 10 µM, first compound 1 µM
[35] = second compound 10 µM, first compound 3.16 µM
[36] = second compound 10 µM, first compound 10 µM
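Further: spheroids exposed to compounds for 7 days before readout.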

CC1COCCN1c1cc(-c2ccnn2C)c2ccnc(-c3ccn[nH]3)c2n1 (centres undefined) + CN(C)c1ccc(Nc2c3ccc(NC(=O)CCN4CCCC4)cc3nc3cc(NC(=O)CCN4CCCC4)ccc23)cc1
IC50 (second compound 0.0316 µM): 1270 nM | IC50 (second compound 0.1 µM): 1060 nM | IC50 (second compound 0.316 µM): 789 nM | IC50 (second compound 1 µM): 654 nM | IC50 (second compound 3.16 µM): 590 nM | IC50 (second compound 10 µM): 555 nM | viability, T/C [1]: 103% | viability, T/C [2]: 84.2% | viability, T/C [3]: 61.7% | viability, T/C [4]: 53.9% | viability, T/C [5]: 44.4% | viability, T/C [6]: 29% | viability, T/C [7]: 106% | viability, T/C [8]: 77% | viability, T/C [9]: 66% | viability, T/C [10]: 53.5% | viability, T/C [11]: 40.1% | viability, T/C [12]: 30.6% | viability, T/C [13]: 93.9% | viability, T/C [14]: 78% | viability, T/C [15]: 59.4% | viability, T/C [16]: 46.6% | viability, T/C [17]: 38.4% | viability, T/C [18]: 27.5% | viability, T/C [19]: 90.8% | viability, T/C [20]: 77.1% | viability, T/C [21]: 51.7% | viability, T/C [22]: 48.2% | viability, T/C [23]: 37.2% | viability, T/C [24]: 27.2% | viability, T/C [25]: 87.4% | viability, T/C [26]: 65.2% | viability, T/C [27]: 53.9% | viability, T/C [28]: 46.9% | viability, T/C [29]: 38.5% | viability, T/C [30]: 22.4% | viability, T/C [31]: 77.2% | viability, T/C [32]: 66.6% | viability, T/C [33]: 57.1% | viability, T/C [34]: 42.1% | viability, T/C [35]: 32.4% | viability, T/C [36]: 17.7%

CC1COCCN1c1cc(C2(S(C)(=N)=O)CC2)nc(-c2ccnc3[nH]ccc23)n1 (centres undefined) + CN(C)c1ccc(Nc2c3ccc(NC(=O)CCN4CCCC4)cc3nc3cc(NC(=O)CCN4CCCC4)ccc23)cc1
IC50 (second compound 0.0316 µM): > 10000 nM | IC50 (second compound 0.1 µM): > 10000 nM | IC50 (second compound 0.316 µM): > 10000 nM | IC50 (second compound 1 µM): 8960 nM | IC50 (second compound 3.16 µM): 7800 nM | IC50 (second compound 10 µM): 8890 nM | viability, T/C [1]: 89% | viability, T/C [2]: 85.8% | viability, T/C [3]: 98.5% | viability, T/C [4]: 86.8% | viability, T/C [5]: 79.3% | viability, T/C [6]: 58.3% | viability, T/C [7]: 107% | viability, T/C [8]: 84.6% | viability, T/C [9]: 98.2% | viability, T/C [10]: 95.2% | viability, T/C [11]: 79.7% | viability, T/C [12]: 57.1% | viability, T/C [13]: 92.5% | viability, T/C [14]: 95.9% | viability, T/C [15]: 100% | viability, T/C [16]: 82.9% | viability, T/C [17]: 85.2% | viability, T/C [18]: 50.5% | viability, T/C [19]: 90.5% | viability, T/C [20]: 79.8% | viability, T/C [21]: 74.7% | viability, T/C [22]: 83.9% | viability, T/C [23]: 79.5% | viability, T/C [24]: 46.9% | viability, T/C [25]: 80.5% | viability, T/C [26]: 82.6% | viability, T/C [27]: 86.8% | viability, T/C [28]: 78.6% | viability, T/C [29]: 67.7% | viability, T/C [30]: 45.1% | viability, T/C [31]: 82.3% | viability, T/C [32]: 78.3% | viability, T/C [33]: 72.7% | viability, T/C [34]: 67.7% | viability, T/C [35]: 65.2% | viability, T/C [36]: 47.5%
